PubChem BioAssay (NCI)
Values joined by “and” are separate entries in the source; they are usually repeats but may differ in a detail not shown here. Identical values can stand only once.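 How tested: cells in 96-well plates exposed to compound for 48 hours at five concentrations. GI50 is the concentration that inhibits growth by half. Definition used: TGI = concentration required for complete inhibition of growth.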

Columns and labels:
Experiment in all cases: growth of human tumour cells (NCI), 48 h
SN12C renal = tested on: SN12C renal
HOP-62 NSCLC = tested on: HOP-62 NSCLC
OVCAR-5 ovarian = tested on: OVCAR-5 ovarian
HT29 colon = tested on: HT29 colon
HOP-92 NSCLC = tested on: HOP-92 NSCLC
KM12 colon = tested on: KM12 colon
OVCAR-8 ovarian = tested on: OVCAR-8 ovarian
DU-145 prostate = tested on: DU-145 prostate
COLO 205 colon = tested on: COLO 205 colon
K-562 leukemia = tested on: K-562 leukemia

SMILES	GI50 (SN12C renal) [µM]	TGI (SN12C renal) [µM]	GI50 (HOP-62 NSCLC) [µM]	TGI (HOP-62 NSCLC) [µM]	GI50 (OVCAR-5 ovarian) [µM]	TGI (OVCAR-5 ovarian)	GI50 (HT29 colon) [µM]	TGI (HT29 colon) [µM]	GI50 (HOP-92 NSCLC) [µM]	TGI (HOP-92 NSCLC) [µM]	GI50 (KM12 colon) [µM]	TGI (KM12 colon)	GI50 (OVCAR-8 ovarian) [µM]	TGI (OVCAR-8 ovarian) [µM]	GI50 (DU-145 prostate) [µM]	TGI (DU-145 prostate) [µM]	GI50 (COLO 205 colon) [µM]	TGI (COLO 205 colon) [µM]	GI50 (K-562 leukemia) [µM]	TGI (K-562 leukemia) [µM]
COc1cc2nc(N3CCCC3)nc(Nc3ccccc3)c2cc1OC	1.72	3.24	1.93	4.2	1.75	3.14 µM	1.34	3.11	1.39	2.99	1.74	3.32 µM	1.54	5.06	1.62	3.07	1.3	3.96	0.382	2.07
CN(C)C(=O)c1cc2cnc(Nc3ccc(-c4csc5c(=O)cc(N6CCNCC6)oc45)cc3)nc2n1C1CCCC1	0.557	16.8	1.03	10.6	0.491	5.11 µM	0.438	2.99	0.517	16.5	0.345	1.58 µM	1.21	> 42.5	1.01	2.5	0.671	4.64	0.456	4.2
O=C1c2ccccc2-c2n[nH]c3cccc1c23	20.8	> 100	32.1	> 100	–	85.4 µM and > 100 µM	12.9	> 100	23.7	> 100	3.1	72 µM and > 100 µM	–	> 100	13	> 100	23.9	> 100	15.6	> 100
Cc1cc2c3ccccc3ccc2[n+]2ccccc12	1.4	7.29	2.58	11.7	30.3	> 100 µM	9.19	41.1	2.69	27.4	1.43	11.6 µM	2.43	21.9	9.02	40.4	1.95	8.31	4.32	32.8
CC1(O)CC2(O)C=CC3=C(C(=O)c4cccc(O)c4C3=O)C2(O)C(=O)C1O (centres undefined)	–	6.66	–	36.4	–	9.55 µM	–	5.95	–	2.19	–	17.8 µM	–	8.08	–	32.3	–	0.436	–	10.4
O=C1c2cc3c(cc2[C@@H]2[C@H]1c1ccc([N+](=O)[O-])cc1C(=O)N2CCCCl)OCO3	< 0.01	–	< 0.01	–	< 0.0144	–	< 0.01	> 100	< 0.03	> 100	< 0.0113	2.05 µM	< 0.01	> 100	< 0.01	–	< 0.0131	> 100	0.857	> 100
CCN(C(=O)CCl)C(C)(C)C(SSSC(c1ccc(Cl)cc1)C(C)(C)N(CC)C(=O)CCl)c1ccc(Cl)cc1 (centres undefined)	12.5	26.4	8.33	23.4	13.8	27.9 µM	2.65	8.23	1.29	8.6	10.3	23 µM	10.9	24.1	11.5	24.2	7.21	24.8	1.71	3.59
